From patent US20100286145A1, “ISOPHTHALAMIDE DERIVATIVES INHIBITING BETA-SECRETASE ACTIVITY” (CoMentis, Inc., priority 2007, published 2010)

How the values were obtained:
[1] = test system: Aβ production in Chinese hamster ovary cells that over-express human APP695 with the London and Swedish mutations; assay: Cellular Aβ IC50 determination (Aβ40 sandwich ELISA); type: cell-based; settings: Cricetulus griseus; cellular Aβ production; read-out: IC50
Outline: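 CHO cells overexpressing human APP695 with London and Swedish mutations, seeded at 10% confluency, treated with compounds up to about 4 μM final (0.4% DMSO). Secreted Aβ40 measured by sandwich ELISA relative to control and fitted to a 4-parameter IC50 model.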

memapsin 2 = memapsin 2 (Homo sapiens, UniProt P56817); assay: Inhibition of memapsin 2 beta-secretase activity (fluorogenic substrate FS-2); type: biochemical; settings: memapsin 2, pH 4, 37° C., 20 minutes pre-incubation; read-out: M2Ki
memapsin 2, sequence (P56817 46-501): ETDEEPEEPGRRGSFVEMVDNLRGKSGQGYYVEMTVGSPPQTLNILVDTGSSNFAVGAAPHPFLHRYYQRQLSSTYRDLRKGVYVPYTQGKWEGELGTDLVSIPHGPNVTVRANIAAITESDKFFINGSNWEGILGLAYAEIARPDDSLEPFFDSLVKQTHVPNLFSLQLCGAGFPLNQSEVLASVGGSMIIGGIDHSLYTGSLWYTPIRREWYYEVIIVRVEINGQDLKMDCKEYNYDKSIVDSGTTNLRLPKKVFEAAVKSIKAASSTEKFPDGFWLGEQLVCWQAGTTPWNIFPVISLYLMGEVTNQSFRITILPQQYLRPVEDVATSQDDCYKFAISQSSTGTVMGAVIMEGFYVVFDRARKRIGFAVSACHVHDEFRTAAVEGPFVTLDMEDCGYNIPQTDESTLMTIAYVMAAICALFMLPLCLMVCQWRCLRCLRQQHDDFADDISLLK
Outline: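 Memapsin 2 pre-incubated 20 min with compound at pH 4, 37° C, then FS-2 substrate (MCA-SEVNLDAEFK-DNP, APP Swedish cleavage site) added. Rate of fluorescence increase compared with uninhibited controls, fitted to a tight-binding inhibition model.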

| IC50 [1] [nM] | Ki (memapsin 2) [nM] | Compound |
| --- | --- | --- |
| < 1000 | < 300 | C[C@@H](NC(=O)c1cc(C(=O)N[C@@H](Cc2ccccc2)[C@H](O)CNCc2cccc(C(C)(C)C)c2O)cc(N(C)S(C)(=O)=O)c1)c1ccccc1 [Compound 79, N1-((2S,3R)-4-(3-tert-butyl-2-hydroxybenzylamino)-3-hydroxy-1-phenylbutan-2-yl)-5-(N-methylmethylsulfonamido)-N3-((R)-1-phenylethyl)isophthalamide] |
| < 1000 | < 300 | COc1cc(C(=O)NCc2nc(C)cs2)cc(C(=O)N[C@@H](Cc2ccccc2)[C@H](O)CNCc2ccnc(C(C)C)c2)c1 [Compound 83, N1-((2S,3R)-3-hydroxy-4-((2-isopropylpyridin-4-yl)methylamino)-1-phenylbutan-2-yl)-5-methoxy-N3-((4-methylthiazol-2-yl)methyl)isophthalamide] |
| < 1000 | < 300 | COc1cccc(CNC[C@@H](O)[C@H](Cc2ccccc2)NC(=O)c2cc(C(=O)N(C)Cc3nc(C)cs3)cc(-c3ncco3)c2)c1 [Compound 85, N1-((2S,3R)-3-hydroxy-4-(3-methoxybenzylamino)-1-phenylbutan-2-yl)-N3-methyl-N3-((4-methylthiazol-2-yl)methyl)-5-(oxazol-2-yl)isophthalamide] |
| 1000 to 5000 | > 501 | CNC(=O)c1cc(C(=O)N[C@@H](Cc2ccccc2)[C@H](O)CNCc2cccc(OC)c2)cc(C(=O)N[C@H](C)c2ccccc2)c1 [Compound 94, N1-((2S,3R)-3-hydroxy-4-(3-methoxybenzylamino)-1-phenylbutan-2-yl)-N3-methyl-N5-((R)-1-phenylethyl)benzene-1,3,5-tricarboxamide] |
| < 1000 | < 300 | Cc1coc(CN(C)C(=O)c2cccc(C(=O)N[C@@H](Cc3ccccc3)[C@H](O)CNCc3cncc(C(C)C)c3)c2)n1 [Compound 95, N1-((2S,3R)-3-hydroxy-4-((5-isopropylpyridin-3-yl)methylamino)-1-phenylbutan-2-yl)-N3-methyl-N3-((4-methyloxazol-2-yl)methyl)isophthalamide] |
| < 1000 | < 300 | Cc1csc(CN(C)C(=O)c2cccc(C(=O)N[C@@H](Cc3ccccc3)[C@H](O)CNCc3cccc(I)c3)c2)n1 [Compound 97, N1-((2S,3R)-3-hydroxy-4-(3-iodobenzylamino)-1-phenylbutan-2-yl)-N3-methyl-N3-((4-methylthiazol-2-yl)methyl)isophthalamide] |
| 1000 to 5000 | < 300 | CNC(=O)c1cc(C(=O)N[C@@H](Cc2ccccc2)[C@H](O)CNCc2cccc(OC)c2)cc(C(=O)N(C)Cc2nc(C)cs2)c1 [Compound 98, N1-((2S,3R)-3-hydroxy-4-(3-methoxybenzylamino)-1-phenylbutan-2-yl)-N3,N5-dimethyl-N3-((4-methylthiazol-2-yl)methyl)benzene-1,3,5-tricarboxamide] |
| < 1000 | < 300 | Cc1csc(CN(C)C(=O)c2cc(OS(C)(=O)=O)cc(C(=O)N[C@@H](Cc3ccccc3)[C@H](O)CNCc3cncc(C(C)C)c3)c2)n1 [Compound 100, 3-((2S,3R)-3-hydroxy-4-((5-isopropylpyridin-3-yl)methylamino)-1-phenylbutan-2-ylcarbamoyl)-5-(methyl((4-methylthiazol-2-yl)methyl)carbamoyl)phenyl methanesulfonate] |
| < 1000 | < 300 | COc1cccc(CNC[C@@H](O)[C@H](Cc2ccccc2)NC(=O)c2cc(C(N)=O)cc(C(=O)N(C)Cc3nc(C)cs3)c2)c1 [Compound 103, N1-((2S,3R)-3-hydroxy-4-(3-methoxybenzylamino)-1-phenylbutan-2-yl)-N3-methyl-N3-((4-methylthiazol-2-yl)methyl)benzene-1,3,5-tricarboxamide] |
| < 1000 | < 300 | Cc1csc(CN(C)C(=O)c2cccc(C(=O)N[C@@H](Cc3ccccc3)[C@H](O)CNCc3cc(C(C)C)nc(C(C)C)c3)c2)n1 [Compound 106, N1-((2S,3R)-4-((2,6-diisopropylpyridin-4-yl)methylamino)-3-hydroxy-1-phenylbutan-2-yl)-N3-methyl-N3-((4-methylthiazol-2-yl)methyl)isophthalamide] |
| < 1000 | < 300 | C[C@@H](NC(=O)c1cc(C(=O)N[C@@H](Cc2ccccc2)[C@H](O)CNCc2cccc(CO)c2)cc(N(C)S(C)(=O)=O)c1)c1ccccc1 [Compound 107, N1-((2S,3R)-3-hydroxy-4-(3-(hydroxymethyl)benzylamino)-1-phenylbutan-2-yl)-5-(N-methylmethylsulfonamido)-N3-((R)-1-phenylethyl)isophthalamide] |
| < 1000 | < 300 | C[C@@H](NC(=O)c1cc(C(=O)N[C@@H](Cc2ccccc2)[C@H](O)CNCc2cc(C(C)(C)C)ccc2O)cc(N(C)S(C)(=O)=O)c1)c1ccccc1 [Compound 110, N1-((2S,3R)-4-(5-tert-butyl-2-hydroxybenzylamino)-3-hydroxy-1-phenylbutan-2-yl)-5-(N-methylmethylsulfonamido)-N3-((R)-1-phenylethyl)isophthalamide] |

The remaining lines, values behind:

| Compound | IC50 [1] [nM] | Ki (memapsin 2) [nM] |
| --- | --- | --- |
| Cc1csc(CN(C)C(=O)c2cccc(C(=O)N[C@@H](Cc3ccccc3)[C@H](O)CNCc3cccc(O)c3)c2)n1 [Compound 73, N1-((2S,3R)-3-hydroxy-4-(3-hydroxybenzylamino)-1-phenylbutan-2-yl)-N3-methyl-N3-((4-methylthiazol-2-yl)methyl)isophthalamide] | > 5000 | > 501 |
| Cc1csc(CN(C)C(=O)c2cccc(C(=O)N[C@@H](Cc3ccccc3)[C@H](O)CNCc3cc(NC(=O)OCc4ccccc4)cc(C(C)C)c3)c2)n1 [Compound 74, benzyl 3-(((2R,3S)-2-hydroxy-3-(3-(methyl((4-methylthiazol-2-yl)methyl)carbamoyl)benzamido)-4-phenylbutylamino)methyl)-5-isopropylphenylcarbamate] | < 1000 | < 300 |
| Cc1csc(CN(C)C(=O)c2cccc(C(=O)N[C@@H](Cc3ccccc3)[C@H](O)CNCc3cc(N)cc(C(C)C)c3)c2)n1 [Compound 75, N1-((2S,3R)-4-(3-amino-5-isopropylbenzylamino)-3-hydroxy-1-phenylbutan-2-yl)-N3-methyl-N3-((4-methylthiazol-2-yl)methyl)isophthalamide] | < 1000 | < 300 |
| Cc1csc(CN(C)C(=O)c2cccc(C(=O)N[C@@H](Cc3ccccc3)[C@H](O)CNCc3cccc(C(C)(C)C)c3O)c2)n1 [Compound 77, N1-((2S,3R)-4-(3-tert-butyl-2-hydroxybenzylamino)-3-hydroxy-1-phenylbutan-2-yl)-N3-methyl-N3-((4-methylthiazol-2-yl)methyl)isophthalamide] | < 1000 | < 300 |
| COc1cccc(CNC[C@@H](O)[C@H](Cc2ccccc2)NC(=O)c2cc(C(=O)N(C)Cc3nc(C)cs3)cc(-c3ccccc3)c2)c1 [Compound 78, N3-((2S,3R)-3-hydroxy-4-(3-methoxybenzylamino)-1-phenylbutan-2-yl)-N5-methyl-N5-((4-methylthiazol-2-yl)methyl)biphenyl-3,5-dicarboxamide] | < 1000 | < 300 |
| Cc1csc(CN(C)C(=O)c2cccc(C(=O)N[C@@H](Cc3ccccc3)[C@H](O)CNCc3cncc(C(C)(C)F)c3)c2)n1 [Compound 92, N1-((2S,3R)-4-((5-(2-fluoropropan-2-yl)pyridin-3-yl)methylamino)-3-hydroxy-1-phenylbutan-2-yl)-N3-methyl-N3-((4-methylthiazol-2-yl)methyl)isophthalamide] | < 1000 | < 300 |
| Cc1csc(CNC(=O)c2cccc(C(=O)N[C@@H](Cc3ccccc3)[C@H](O)CNCc3cc(C(C)C)c(C)nc3C)c2)n1 [Compound 93, N1-((2S,3R)-3-hydroxy-4-((5-isopropyl-2,6-dimethylpyridin-3-yl)methylamino)-1-phenylbutan-2-yl)-N3-((4-methylthiazol-2-yl)methyl)isophthalamide] | < 1000 | 301 to 500 |
| COC(=O)c1cccc(CNC[C@@H](O)[C@H](Cc2ccccc2)NC(=O)c2cc(C(=O)N[C@H](C)c3ccccc3)cc(N(C)S(C)(=O)=O)c2)c1 [Compound 96, methyl 3-(((2R,3S)-2-hydroxy-3-(3-(N-methylmethylsulfonamido)-5-((R)-1-phenylethylcarbamoyl)benzamido)-4-phenylbutylamino)methyl)benzoate] | < 1000 | < 300 |
| COc1cccc(CNC[C@@H](O)[C@H](Cc2ccccc2)NC(=O)c2cccc(C(=O)NCc3nccc(C)n3)c2)c1 [Compound 102, N1-((2S,3R)-3-hydroxy-4-(3-methoxybenzylamino)-1-phenylbutan-2-yl)-N3-((4-methylpyrimidin-2-yl)methyl)isophthalamide] | > 5000 | > 501 |
| Cc1csc(CN(C)C(=O)c2cccc(C(=O)N[C@@H](Cc3ccccc3)[C@H](O)CNCc3cccc(Cl)c3)c2)n1 [Compound 104, N1-((2S,3R)-4-(3-chlorobenzylamino)-3-hydroxy-1-phenylbutan-2-yl)-N3-methyl-N3-((4-methylthiazol-2-yl)methyl)isophthalamide] | < 1000 | < 300 |
| Cc1csc(CN(C)C(=O)c2cccc(C(=O)N[C@@H](Cc3ccccc3)[C@H](O)CNCc3cc(C(C)(C)C)ccc3O)c2)n1 [Compound 111, N1-((2S,3R)-4-(5-tert-butyl-2-hydroxybenzylamino)-3-hydroxy-1-phenylbutan-2-yl)-N3-methyl-N3-((4-methylthiazol-2-yl)methyl)isophthalamide] | < 1000 | < 300 |
